{"source": "ChEMBL document CHEMBL5376011", "about": "“Discovery of Anti-Hypercholesterolemia Agents Targeting LXRα from Marine Microorganism-Derived Natural Products” (J Nat Prod, 2024)", "assay_type_in_all_cases": "functional, organism-based", "conditions_in_all_cases": "dose 300.0 µg/kg, time 15.0 day", "key": {"Mus musculus [1]": {"system": "Mus musculus", "experiment": "Antihypercholesterolemic activity against high cholesterol diet induced C57BL/6J mouse assessed as reduction in serum alanine aminotransferase level at 300 microg/kg, ip administered every 2 days for 15 days"}, "Mus musculus [2]": {"system": "Mus musculus", "experiment": "Antihypercholesterolemic activity against high cholesterol diet induced C57BL/6J mouse assessed as reduction in serum aspartate aminotransferase level at 300 microg/kg, ip administered every 2 days for 15 days"}, "Mus musculus [3]": {"system": "Mus musculus", "experiment": "Antihypercholesterolemic activity against high cholesterol diet induced C57BL/6J mouse assessed as reduction in total cholesterol level in plasma at 300 microg/kg, ip administered every 2 days for 15 days"}, "Mus musculus [4]": {"system": "Mus musculus", "experiment": "Antihypercholesterolemic activity against high cholesterol diet induced C57BL/6J mouse assessed as reduction in plasma low-density lipoprotein cholesterol level at 300 microg/kg, ip administered every 2 days for 15 days"}, "Mus musculus [5]": {"system": "Mus musculus", "experiment": "Antihypercholesterolemic activity against high cholesterol diet induced C57BL/6J mouse assessed as reduction in hepatocyte damage at 300 microg/kg, ip administered every 2 days for 15 days"}, "Mus musculus [6]": {"system": "Mus musculus", "experiment": "Antihypercholesterolemic activity against high cholesterol diet fed LXRalpha knockout C57BL/6J mouse assessed as improvement in hepatocellular degeneration at 300 microg/kg, ip administered every 2 days for 15 days by H&E staining based analysis"}, "Mus musculus [7]": {"system": "Mus musculus", "experiment": "Antihypercholesterolemic activity against high cholesterol diet fed LXRalpha knockout C57BL/6J mouse assessed as improvement in hepatic steatosis at 300 microg/kg, ip administered every 2 days for 15 days by H&E staining based analysis"}, "Mus musculus [8]": {"system": "Mus musculus", "experiment": "Antihypercholesterolemic activity against high cholesterol diet fed LXRalpha knockout C57BL/6J mouse assessed as improvement in liver lipid droplet accumulation at 300 microg/kg, ip administered every 2 days for 15 days by H&E staining based analysis"}, "Mus musculus [9]": {"system": "Mus musculus", "experiment": "Antihypercholesterolemic activity against high cholesterol diet fed LXRalpha knockout C57BL/6J mouse assessed as improvement in hepatocellular degeneration at 300 microg/kg, ip administered every 2 days for 15 days by Oil red staining based analysis"}, "Mus musculus [10]": {"system": "Mus musculus", "experiment": "Antihypercholesterolemic activity against high cholesterol diet fed LXRalpha knockout C57BL/6J mouse assessed as improvement in hepatic steatosis at 300 microg/kg, ip administered every 2 days for 15 days by Oil red staining based analysis"}, "Mus musculus [11]": {"system": "Mus musculus", "experiment": "Antihypercholesterolemic activity against high cholesterol diet fed LXRalpha knockout C57BL/6J mouse assessed as improvement in liver lipid droplet accumulation at 300 microg/kg, ip administered every 2 days for 15 days by Oil red staining based analysis"}, "Mus musculus [12]": {"system": "Mus musculus", "experiment": "Antihypercholesterolemic activity against high cholesterol diet fed LXRalpha knockout C57BL/6J mouse assessed as reduction in serum alanine aminotransferase level at 300 microg/kg, ip administered every 2 days for 15 days"}, "Mus musculus [13]": {"system": "Mus musculus", "experiment": "Antihypercholesterolemic activity against high cholesterol diet fed LXRalpha knockout C57BL/6J mouse assessed as reduction in serum aspartate aminotransferase level at 300 microg/kg, ip administered every 2 days for 15 days"}, "Mus musculus [14]": {"system": "Mus musculus", "experiment": "Antihypercholesterolemic activity against high cholesterol diet fed LXRalpha knockout C57BL/6J mouse assessed as reduction in serum total cholesterol level at 300 microg/kg, ip administered every 2 days for 15 days"}, "Mus musculus [15]": {"system": "Mus musculus", "experiment": "Antihypercholesterolemic activity against high cholesterol diet fed LXRalpha knockout C57BL/6J mouse assessed as reduction in serum triglycerides level at 300 microg/kg, ip administered every 2 days for 15 days"}, "Mus musculus [16]": {"system": "Mus musculus", "experiment": "Antihypercholesterolemic activity against high cholesterol diet fed LXRalpha knockout C57BL/6J mouse assessed as reduction in serum low density lipoprotein cholesterol level at 300 microg/kg, ip administered every 2 days for 15 days"}, "Mus musculus [17]": {"system": "Mus musculus", "experiment": "Antihypercholesterolemic activity against high cholesterol diet fed LXRalpha knockout C57BL/6J mouse assessed as reduction in serum high density lipoprotein cholesterol level at 300 microg/kg, ip administered every 2 days for 15 days"}, "Mus musculus [18]": {"system": "Mus musculus", "experiment": "Antihypercholesterolemic activity against high cholesterol diet fed LXRalpha knockout C57BL/6J mouse assessed as upregulation in ABCA1 protein level at 300 microg/kg, ip administered every 2 days for 15 days by Western blot analysis"}, "Mus musculus [19]": {"system": "Mus musculus", "experiment": "Antihypercholesterolemic activity against high cholesterol diet fed LXRalpha knockout C57BL/6J mouse assessed as upregulation in CYP7A1 protein level at 300 microg/kg, ip administered every 2 days for 15 days by Western blot analysis"}, "Mus musculus [20]": {"system": "Mus musculus", "experiment": "Antihypercholesterolemic activity against high cholesterol diet fed C57BL/6J mouse assessed as reduction in SREBP1 protein level at 300 microg/kg, ip administered every 2 days for 15 days by Western blot analysis"}, "Mus musculus [21]": {"system": "Mus musculus", "experiment": "Antihypercholesterolemic activity against high cholesterol diet fed C57BL/6J mouse assessed as reduction in FASN protein level at 300 microg/kg, ip administered every 2 days for 15 days by Western blot analysis"}, "Mus musculus [22]": {"system": "Mus musculus", "experiment": "Antihypercholesterolemic activity against high cholesterol diet fed C57BL/6J mouse assessed as reduction in SCD1 protein level at 300 microg/kg, ip administered every 2 days for 15 days by Western blot analysis"}}, "note": "Activity calls are given as the source filed them. The calls are words filed in the database; no cut-off is given here."}
{"compound": "COc1ccc2c3c([nH]c2c1)[C@H](C=C(C)C)N1C(=O)[C@@H]2CCCN2C(=O)[C@]1(O)[C@H]3O", "values": [{"measurement": "Activity", "setting": "Mus musculus [1]", "value": "Active"}, {"measurement": "Activity", "setting": "Mus musculus [2]", "value": "Active"}, {"measurement": "Activity", "setting": "Mus musculus [3]", "value": "Active"}, {"measurement": "Activity", "setting": "Mus musculus [4]", "value": "Active"}, {"measurement": "Activity", "setting": "Mus musculus [5]", "value": "Active"}, {"measurement": "Activity", "setting": "Mus musculus [6]", "value": "Active"}, {"measurement": "Activity", "setting": "Mus musculus [7]", "value": "Active"}, {"measurement": "Activity", "setting": "Mus musculus [8]", "value": "Active"}, {"measurement": "Activity", "setting": "Mus musculus [9]", "value": "Active"}, {"measurement": "Activity", "setting": "Mus musculus [10]", "value": "Active"}, {"measurement": "Activity", "setting": "Mus musculus [11]", "value": "Active"}, {"measurement": "Activity", "setting": "Mus musculus [12]", "value": "inactive"}, {"measurement": "Activity", "setting": "Mus musculus [13]", "value": "inactive"}, {"measurement": "Activity", "setting": "Mus musculus [14]", "value": "inactive"}, {"measurement": "Activity", "setting": "Mus musculus [15]", "value": "inactive"}, {"measurement": "Activity", "setting": "Mus musculus [16]", "value": "inactive"}, {"measurement": "Activity", "setting": "Mus musculus [17]", "value": "inactive"}, {"measurement": "Activity", "setting": "Mus musculus [18]", "value": "inactive"}, {"measurement": "Activity", "setting": "Mus musculus [19]", "value": "inactive"}, {"measurement": "Activity", "setting": "Mus musculus [20]", "value": "Active"}, {"measurement": "Activity", "setting": "Mus musculus [21]", "value": "Active"}, {"measurement": "Activity", "setting": "Mus musculus [22]", "value": "Active"}]}
